Measurements: patent US20050175550A1, “Compositions for oral use” (priority 2000, published 2005)
Converted amounts (≈) assume the structure as drawn.

Assays:
Experiment in all cases: MIC by agar plate dilution method on standard strains (Example 3)
Type in all cases: cell-based
Conditions in all cases: read-out: MIC
[1] = test system: Staphylococcus epidermidis ATCC12228
Description: (§1) Minimum growth-inhibiting concentrations of trifluoromethionine and other antibacterial drugs on standard strains were determined by an agar plate dilution method according to the standard method of Japanese Society of Chemotherapy.
(§2) Drug solutions at a concentration 10 times as high as the maximum applicable concentration were prepared as original solutions of test drugs given in Table 2 (as to solvents used for this purpose, reference should be made also to Table 2). Serial two-fold dilution series of the original solutions were prepared at desired stages, and 1 ml each of the diluted drug solutions was added to 9 ml of media given in Table 3 to prepare drug plates. Concentration range of the individual drugs used are as follows: trifluoromethionine: 400-0.025 μg/ml (15 stages), tetracycline: 100-0.025 μg/ml (13 stages), and clarithromycin: 100-0.025 μg/ml (13 stages).
(§3) • 1) Bacterial solutions stocked at −80° C. were inoculated on agar media (as to media used, reference should be made to Table 3), and then incubated at 37° C. overnight. When desired, subculturing was conducted once more on the same agar media (by overnight incubation at 37° C.). • 2) Colonies growing on the agar media were sampled by a platinum loop, suspended in liquid media (reference should be made to Table 3) and statically incubated at 37° C. for 18 hours (preculturing). • 3) Preculturing was continued up to McFarland 0.5 (McFarland 0.5=about 10^8 CFU/ml), and then the culture broths were diluted with Muellar Hinton Broth to make 10^6 CFU/ml. 5 μl each of the diluted solutions were inoculated on the above-mentioned drug plates by an inoculator Microplanter.
(§4) Thus, bacterial solutions at about 10^8 CFU/ml can be easily prepared by use of McFarland 0.5. Bacterial solutions at such a turbidity are commercially available, but can be easily prepared. McFarland 0.5 can be obtained by adding 0.5 ml of an aqueous 0.048 mol/l barium chloride solution to 99.5 ml of 1% v/v (0.18 mol/l) sulfuric acid. • 4) The individual bacteria were incubated at 37° C. for 18-20 hours and then the growth was determined in the same manner as in Example 2 to obtain minimum growth-inhibiting concentrations.

[2] = test system: Staphylococcus epidermidis ATCC29886
Description: as §1, §2, §3, §4

[3] = test system: Bacillus subtilis ATCC6633
Description: as §3, with “Drug solutions at a concentration 10 times as high as the maximum applicable concentration were prepared as original solutions of test drugs given in Table 2 (as to solvents used for this purpose, reference should be made also to Table 2). Serial two-fold dilution series of the original solutions were prepared at desired stages, and 1 ml each of the diluted drug solutions was added to 9 ml of media given in Table 3 to prepare drug plates. […] • 1)” for “• 1)”, “inoculator Microplanter. […] Thus, bacterial solutions at about 10^8 CFU/ml can be easily prepared by use of McFarland 0.5. Bacterial solutions at such a turbidity are commercially available, but can be easily prepared.” for “inoculator Microplanter.”

[4] = test system: Enterococcus faecalis ATCC29247
Description: as §3, with “Drug solutions at a concentration 10 times as high as the maximum applicable concentration were prepared as original solutions of test drugs given in Table 2 (as to solvents used for this purpose, reference should be made also to Table 2). Serial two-fold dilution series of the original solutions were prepared at desired stages, and 1 ml each of the diluted drug solutions was added to 9 ml of media given in Table 3 to prepare drug plates. […] • 1)” for “• 1)”, “inoculator Microplanter. […] Thus, bacterial solutions at about 10^8 CFU/ml can be easily prepared by use of McFarland 0.5. Bacterial solutions at such a turbidity are commercially available, but can be easily prepared.” for “inoculator Microplanter.”

[5] = test system: Enterococcus faecium ATCC19434
Description: as §3, with “Drug solutions at a concentration 10 times as high as the maximum applicable concentration were prepared as original solutions of test drugs given in Table 2 (as to solvents used for this purpose, reference should be made also to Table 2). Serial two-fold dilution series of the original solutions were prepared at desired stages, and 1 ml each of the diluted drug solutions was added to 9 ml of media given in Table 3 to prepare drug plates. […] • 1)” for “• 1)”, “inoculator Microplanter. […] Thus, bacterial solutions at about 10^8 CFU/ml can be easily prepared by use of McFarland 0.5. Bacterial solutions at such a turbidity are commercially available, but can be easily prepared.” for “inoculator Microplanter.”

[6] = test system: Escherichia coli ATCC25922
Description: as §3, with “Drug solutions at a concentration 10 times as high as the maximum applicable concentration were prepared as original solutions of test drugs given in Table 2 (as to solvents used for this purpose, reference should be made also to Table 2). Serial two-fold dilution series of the original solutions were prepared at desired stages, and 1 ml each of the diluted drug solutions was added to 9 ml of media given in Table 3 to prepare drug plates. […] • 1)” for “• 1)”, “inoculator Microplanter. […] Thus, bacterial solutions at about 10^8 CFU/ml can be easily prepared by use of McFarland 0.5. Bacterial solutions at such a turbidity are commercially available, but can be easily prepared.” for “inoculator Microplanter.”

[7] = test system: Escherichia coli ATCC35218
Description: as §3, with “Drug solutions at a concentration 10 times as high as the maximum applicable concentration were prepared as original solutions of test drugs given in Table 2 (as to solvents used for this purpose, reference should be made also to Table 2). Serial two-fold dilution series of the original solutions were prepared at desired stages, and 1 ml each of the diluted drug solutions was added to 9 ml of media given in Table 3 to prepare drug plates. […] • 1)” for “• 1)”, “inoculator Microplanter. […] Thus, bacterial solutions at about 10^8 CFU/ml can be easily prepared by use of McFarland 0.5. Bacterial solutions at such a turbidity are commercially available, but can be easily prepared.” for “inoculator Microplanter.”

[8] = test system: Haemophilus influenzae ATCC33391
Description: as §3, with “Drug solutions at a concentration 10 times as high as the maximum applicable concentration were prepared as original solutions of test drugs given in Table 2 (as to solvents used for this purpose, reference should be made also to Table 2). Serial two-fold dilution series of the original solutions were prepared at desired stages, and 1 ml each of the diluted drug solutions was added to 9 ml of media given in Table 3 to prepare drug plates. […] • 1)” for “• 1)”, “inoculator Microplanter. […] Thus, bacterial solutions at about 10^8 CFU/ml can be easily prepared by use of McFarland 0.5. Bacterial solutions at such a turbidity are commercially available, but can be easily prepared.” for “inoculator Microplanter.”

[9] = test system: Haemophilus influenzae ATCC33533
Description: as §3, with “Drug solutions at a concentration 10 times as high as the maximum applicable concentration were prepared as original solutions of test drugs given in Table 2 (as to solvents used for this purpose, reference should be made also to Table 2). Serial two-fold dilution series of the original solutions were prepared at desired stages, and 1 ml each of the diluted drug solutions was added to 9 ml of media given in Table 3 to prepare drug plates. […] • 1)” for “• 1)”, “inoculator Microplanter. […] Thus, bacterial solutions at about 10^8 CFU/ml can be easily prepared by use of McFarland 0.5. Bacterial solutions at such a turbidity are commercially available, but can be easily prepared.” for “inoculator Microplanter.”

[10] = test system: Haemophilus influenzae ATCC49247
Description: as §3, with “Drug solutions at a concentration 10 times as high as the maximum applicable concentration were prepared as original solutions of test drugs given in Table 2 (as to solvents used for this purpose, reference should be made also to Table 2). Serial two-fold dilution series of the original solutions were prepared at desired stages, and 1 ml each of the diluted drug solutions was added to 9 ml of media given in Table 3 to prepare drug plates. […] • 1)” for “• 1)”, “inoculator Microplanter. […] Thus, bacterial solutions at about 10^8 CFU/ml can be easily prepared by use of McFarland 0.5. Bacterial solutions at such a turbidity are commercially available, but can be easily prepared.” for “inoculator Microplanter.”

[11] = test system: Haemophilus influenzae ATCC49766
Description: as §3, with “Drug solutions at a concentration 10 times as high as the maximum applicable concentration were prepared as original solutions of test drugs given in Table 2 (as to solvents used for this purpose, reference should be made also to Table 2). Serial two-fold dilution series of the original solutions were prepared at desired stages, and 1 ml each of the diluted drug solutions was added to 9 ml of media given in Table 3 to prepare drug plates. […] • 1)” for “• 1)”, “inoculator Microplanter. […] Thus, bacterial solutions at about 10^8 CFU/ml can be easily prepared by use of McFarland 0.5. Bacterial solutions at such a turbidity are commercially available, but can be easily prepared.” for “inoculator Microplanter.”

[12] = test system: Klebsiella pneumoniae ATCC700603
Description: as §3, with “Drug solutions at a concentration 10 times as high as the maximum applicable concentration were prepared as original solutions of test drugs given in Table 2 (as to solvents used for this purpose, reference should be made also to Table 2). Serial two-fold dilution series of the original solutions were prepared at desired stages, and 1 ml each of the diluted drug solutions was added to 9 ml of media given in Table 3 to prepare drug plates. […] • 1)” for “• 1)”, “inoculator Microplanter. […] Thus, bacterial solutions at about 10^8 CFU/ml can be easily prepared by use of McFarland 0.5. Bacterial solutions at such a turbidity are commercially available, but can be easily prepared.” for “inoculator Microplanter.”

[13] = test system: Micrococcus luteus ATCC9341
Description: as §3, with “Drug solutions at a concentration 10 times as high as the maximum applicable concentration were prepared as original solutions of test drugs given in Table 2 (as to solvents used for this purpose, reference should be made also to Table 2). Serial two-fold dilution series of the original solutions were prepared at desired stages, and 1 ml each of the diluted drug solutions was added to 9 ml of media given in Table 3 to prepare drug plates. […] • 1)” for “• 1)”, “inoculator Microplanter. […] Thus, bacterial solutions at about 10^8 CFU/ml can be easily prepared by use of McFarland 0.5. Bacterial solutions at such a turbidity are commercially available, but can be easily prepared.” for “inoculator Microplanter.”

[14] = test system: Moraxella (Branhamella) catarrhalis ATCC25238
Description: as §3, with “Drug solutions at a concentration 10 times as high as the maximum applicable concentration were prepared as original solutions of test drugs given in Table 2 (as to solvents used for this purpose, reference should be made also to Table 2). Serial two-fold dilution series of the original solutions were prepared at desired stages, and 1 ml each of the diluted drug solutions was added to 9 ml of media given in Table 3 to prepare drug plates. […] • 1)” for “• 1)”, “inoculator Microplanter. […] Thus, bacterial solutions at about 10^8 CFU/ml can be easily prepared by use of McFarland 0.5. Bacterial solutions at such a turbidity are commercially available, but can be easily prepared.” for “inoculator Microplanter.”

CN(C)[C@@H]1C(O)=C(C(N)=O)C(=O)[C@@]2(O)C(O)=C3C(=O)c4c(O)cccc4[C@@](C)(O)[C@H]3C[C@@H]12 [TC, Tetracycline]
MIC [1]: 50 µg/mL (≈ 113 µM)
MIC [2]: 0.39 µg/mL (≈ 0.878 µM)
MIC [3]: 0.2 µg/mL (≈ 0.45 µM)
MIC [4]: 25 µg/mL (≈ 56.3 µM)
MIC [5]: 0.2 µg/mL (≈ 0.45 µM)
MIC [6]: 1.56 µg/mL (≈ 3.51 µM)
MIC [7]: 1.56 µg/mL (≈ 3.51 µM)
MIC [8]: 0.78 µg/mL (≈ 1.76 µM)
MIC [9]: 0.39 µg/mL (≈ 0.878 µM)
MIC [10]: 25 µg/mL (≈ 56.3 µM)
MIC [11]: 0.78 µg/mL (≈ 1.76 µM)
MIC [12]: 50 µg/mL (≈ 113 µM)
MIC [13]: 0.78 µg/mL (≈ 1.76 µM)
MIC [14]: 0.2 µg/mL (≈ 0.45 µM)
